Patent US11098040B2, “Compounds and methods of use” (Ferro Therapeutics, Inc., priority 2018, dated 2021)

Tested on: MV-4-1
Assay: Cell viability assay (CellTiter Glo), leukemia cell line MV-4-1
Type: cell-based
Conditions: 96 hours
Description: (§1) Cell viability assay was performed to assess the potency of the compounds in human cancer cell lines KP4 (pancreatic ductal adenocarcinoma), MiaPaCa-2 (pancreatic carcinoma), AsPC-1 (pancreatic adenocarcinoma, ascites), 143B (osteosarcoma), and SJSA-1 (osteosarcoma). Selected compounds were also assayed in a human breast epithelial cell line MCF-10A, a nontumorigenic cell line as a control to assess differential activity. Cells at a density of 500-5,000 cells/well were seeded in 96-well plates and incubated at 37° C. overnight. A series of 9 different concentrations of compound stocks (500×) were created by 3-fold serial dilution in DMSO. These compounds were further diluted in culture media and then added to cells so that the final DMSO concentration was equal to 0.25% or less. After 96 hours of incubation, 50 μL of CellTiter Glo reagent (Promega) was added to each well and luminescence was measured after 10 minutes using EnVision (PerkinElmer). Compounds titrated from top concentration of up to 30 μM. The select compounds were tested initially from 30 μM as the top concentration in duplicates (range of 4.6 nM-30 μM). […] Luminescence from cells treated with DMSO alone was set as Max and % of inhibition was calculated as follows: Inhibition %=(Max-Sample value)/Max*100. Data was analyzed using XL-fit software (ID Business Solutions Ltd.). IC50, relative IC50, or % of top inhibition was calculated.
(§2) A group of selected analogs were further profiled in cell viability assays described above in multiple additional cancer cell lines, including lung cancer, melanoma, hepatocarcinoma, pancreatic cancer, leukemia, lymphoma, ovarian cancer, breast cancer, colon cancer, and sarcoma cell lines. Initial cell seeding numbers were adjusted for each cell line. Typically, 500-5000 cells/well for adherent cells and 5000-10000/well for suspension cells were seeded in 96-well plates.
The results of the assay in the leukemia cell lines are given in Table 16a for MV-4-1 and Table 16b for HL-60 and Kasumi-1.

SMILES	IC50 [µM]
C[C@H]1Cc2c([nH]c3ccccc23)[C@H](c2ccc(C3CCOCC3)cc2)N1C(=O)CCl [Example 112]	0.27
COC(=O)c1ccc([C@H]2c3[nH]c4ccc(OC)cc4c3C[C@H](C)N2C(=O)CCl)cc1 [Example 113]	0.532

Tested on: 143B
Assay: Cell viability assay (CellTiter Glo), osteosarcoma 143B
Type: cell-based
Conditions: Homo sapiens, 96 h, osteosarcoma, 96 hours, CellTiter Glo, read-out: IC50 143B
Description: as §1
(§3) The results of the assay in sarcoma cell lines are given in Table 21a for HT-1080 luc2 (fibrosarcoma expressing a luciferase gene), Table 21b for 143B (osteosarcoma), and Table 21c for SJSA-1 (osteosarcoma).

SMILES	IC50 [µM]
COC(=O)[C@H]1Cc2c([nH]c3ccccc23)[C@H](c2ccc(C(=O)OC(C)(C)C)cc2)N1C(=O)CCl [Example 1]	0.009

Tested on: H2228
Assay: Cell viability assay (CellTiter Glo), lung cancer cell line H2228
Type: cell-based
Conditions: Homo sapiens, NCI-H2228; lung cancer cell line, 96 hours, CellTiter Glo; read-out: IC50 H2228
Description: as §1, §2

SMILES	IC50 [µM]
C[C@H]1Cc2c([nH]c3ccccc23)[C@H](c2ccc(C3CCOCC3)cc2)N1C(=O)CCl [Example 112]	0.066
COC(=O)c1ccc([C@H]2c3[nH]c4ccc(OC)cc4c3C[C@H](C)N2C(=O)CCl)cc1 [Example 113]	0.145

Tested on: MiaPaCa-2
Assay: Cell viability assay (CellTiter Glo), pancreatic carcinoma MiaPaCa-2
Type: cell-based
Conditions: Homo sapiens, MIA PaCa-2; pancreatic carcinoma, 96 hours, CellTiter Glo; read-out: IC50 MiaPaCa-2
How it was run: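 MiaPaCa-2 and AsPC-1 cells were seeded overnight at 37 °C and exposed for 96 h to 9-point, 3-fold dilutions from up to 30 μM (final DMSO ≤0.25%). CellTiter Glo luminescence was read, and inhibition was calculated relative to DMSO-only cells. IC50, relative IC50 or % top inhibition was derived.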

SMILES	IC50 [µM]
COC(=O)[C@H]1Cc2c([nH]c3ccccc23)[C@H](c2ccc(C(=O)OC(C)(C)C)cc2)N1C(=O)CCl [Example 1]	0.005

Tested on: REC-1
Assay: Cell viability assay (CellTiter Glo), lymphoma cell line REC-1
Type: cell-based
Conditions: Homo sapiens, Rec1, 96 hours
Description: as §1, §2

SMILES	IC50 [µM]
C[C@H]1Cc2c([nH]c3ccccc23)[C@H](c2ccc(C3CCOCC3)cc2)N1C(=O)CCl [Example 112]	0.14
COC(=O)c1ccc([C@H]2c3[nH]c4ccc(OC)cc4c3C[C@H](C)N2C(=O)CCl)cc1 [Example 113]	0.222

Tested on: H1299
Assay: Cell viability assay (CellTiter Glo), lung cancer cell line H1299
Type: cell-based
Conditions: Homo sapiens, NCI-H1299, 96 hours
Description: as §1, §2

SMILES	IC50 [µM]
C[C@H]1Cc2c([nH]c3ccccc23)[C@H](c2ccc(C3CCOCC3)cc2)N1C(=O)CCl [Example 112]	0.038
COC(=O)c1ccc([C@H]2c3[nH]c4ccc(OC)cc4c3C[C@H](C)N2C(=O)CCl)cc1 [Example 113]	0.079

Tested on: HT-1080 luc2
Assay: Cell viability assay (CellTiter Glo), fibrosarcoma HT-1080 luc2
Type: cell-based
Conditions: Homo sapiens, fibrosarcoma expressing a luciferase gene, 96 hours, CellTiter Glo, read-out: IC50 HT-1080 luc2
Description: as §1, §2, §3

SMILES	IC50 [µM]
C[C@H]1Cc2c([nH]c3ccccc23)[C@H](c2ccc(C3CCOCC3)cc2)N1C(=O)CCl [Example 112]	0.024
COC(=O)c1ccc([C@H]2c3[nH]c4ccc(OC)cc4c3C[C@H](C)N2C(=O)CCl)cc1 [Example 113]	0.069

Tested on: SK-OV-3
Assay: Cell viability assay (CellTiter Glo), ovarian cancer cell line SK-OV-3
Type: cell-based
Conditions: Homo sapiens, 96 hours
Description: as §1, §2

SMILES	IC50 [µM]
C[C@H]1Cc2c([nH]c3ccccc23)[C@H](c2ccc(C3CCOCC3)cc2)N1C(=O)CCl [Example 112]	0.102
COC(=O)c1ccc([C@H]2c3[nH]c4ccc(OC)cc4c3C[C@H](C)N2C(=O)CCl)cc1 [Example 113]	0.146

Tested on: SJSA-1
Assay: Cell viability assay (CellTiter Glo), osteosarcoma SJSA-1
Type: cell-based
Conditions: Homo sapiens, 96 hours
Description: as §1, §3

SMILES	IC50 [µM]
COC(=O)[C@H]1Cc2c([nH]c3ccccc23)[C@H](c2ccc(C(=O)OC(C)(C)C)cc2)N1C(=O)CCl [Example 1]	0.018

Tested on: Huh7
Assay: Cell viability assay (CellTiter Glo), hepatocellular carcinoma Huh7
Type: cell-based
Conditions: Homo sapiens, Huh-7, 96 hours
Description: as §1, §2

SMILES	IC50 [µM]
C[C@H]1Cc2c([nH]c3ccccc23)[C@H](c2ccc(C3CCOCC3)cc2)N1C(=O)CCl [Example 112]	0.081
COC(=O)c1ccc([C@H]2c3[nH]c4ccc(OC)cc4c3C[C@H](C)N2C(=O)CCl)cc1 [Example 113]	0.157

Tested on: HCC1954
Assay: Cell viability assay (CellTiter Glo), breast cancer cell line HCC1954
Type: cell-based
Conditions: Homo sapiens, 96 hours
Description: as §1, §2

SMILES	IC50 [µM]
C[C@H]1Cc2c([nH]c3ccccc23)[C@H](c2ccc(C3CCOCC3)cc2)N1C(=O)CCl [Example 112]	0.101
COC(=O)c1ccc([C@H]2c3[nH]c4ccc(OC)cc4c3C[C@H](C)N2C(=O)CCl)cc1 [Example 113]	0.2

Tested on: MCF-10A
Assay: Cell viability assay (CellTiter Glo), non-tumorigenic breast epithelial cell line MCF-10A
Type: cell-based
Conditions: Homo sapiens, 96 hours
How it was run: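 Non-tumorigenic breast epithelial MCF-10A line, exposed for 96 hours to compound (top concentration up to 30 μM, 3-fold steps, duplicates, final DMSO 0.25% or less). ATP luminescence (CellTiter Glo) normalised to DMSO controls yields IC50, relative IC50 or % top inhibition; paclitaxel served as cytotoxic control.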

SMILES	IC50 [µM]
COC(=O)[C@H]1Cc2c([nH]c3ccccc23)[C@H](c2ccc(C(=O)OC(C)(C)C)cc2)N1C(=O)CCl [Example 1]	0.85

Tested on: MDA-MB-435S
Assay: Cell viability assay (CellTiter Glo), melanoma cell line MDA-MB-435S
Type: cell-based
Conditions: Homo sapiens, 96 hours
Description: as §1, §2

SMILES	IC50 [µM]
C[C@H]1Cc2c([nH]c3ccccc23)[C@H](c2ccc(C3CCOCC3)cc2)N1C(=O)CCl [Example 112]	0.03
COC(=O)c1ccc([C@H]2c3[nH]c4ccc(OC)cc4c3C[C@H](C)N2C(=O)CCl)cc1 [Example 113]	0.048

Tested on: not listed separately
Assay: in vivo
Conditions: male, Balb/c nude, mouse, ip, 15 mg/kg

SMILES	AUC [µg·h/mL]	AUC(0-inf) [µg·h/mL]	AUC(0-t) [µg·h/mL]	Cmax [µg/mL]	MRT inf [h]	Tmax [h]	half-life [h]
COC(=O)[C@H]1Cc2c([nH]c3ccccc23)[C@H](c2ccc(C(=O)OC(C)(C)C)cc2)N1C(=O)CCl [Example 1]	0.123	0.132	0.123	0.126	1.4	0.5	1.12

Same assay, conditions: male, Balb/c nude, mouse, ip, 15 mg/kg, Calculated Concentration

SMILES	concentration at 0.5 h [µg/mL]	concentration at 1 h [µg/mL]	concentration at 4 h [µg/mL]
COC(=O)[C@H]1Cc2c([nH]c3ccccc23)[C@H](c2ccc(C(=O)OC(C)(C)C)cc2)N1C(=O)CCl [Example 1]	0.146	0.0561	0.00556

Same assay, conditions: male, Balb/c nude, mouse, ip, 15 mg/kg, Calculated Concentration, Mean

SMILES	concentration at 0.5 h [µg/mL]	concentration at 1 h [µg/mL]	concentration at 2 h [µg/mL]	concentration at 4 h [µg/mL]
COC(=O)[C@H]1Cc2c([nH]c3ccccc23)[C@H](c2ccc(C(=O)OC(C)(C)C)cc2)N1C(=O)CCl [Example 1]	0.126	0.0426	0.0149	0.00574

Tested on: PANC1
Assay: Cell viability assay (CellTiter Glo), pancreatic cell line PANC1
Type: cell-based
Conditions: Homo sapiens, PANC-1, 96 hours
Description: as §1, §2
The results of the assay in the pancreatic cell lines are given in Table 15a for PANC1, Table 15b for MiaPaCa-2, and Table 15c for AsPC-1.

SMILES	IC50 [µM]
C[C@H]1Cc2c([nH]c3ccccc23)[C@H](c2ccc(C3CCOCC3)cc2)N1C(=O)CCl [Example 112]	0.081
COC(=O)c1ccc([C@H]2c3[nH]c4ccc(OC)cc4c3C[C@H](C)N2C(=O)CCl)cc1 [Example 113]	0.214

Tested on: HT29
Assay: Cell viability assay (CellTiter Glo), colon cancer cell line HT29
Type: cell-based
Conditions: Homo sapiens, HT-29, 96 hours
Description: as §1, §2

SMILES	IC50 [µM]
C[C@H]1Cc2c([nH]c3ccccc23)[C@H](c2ccc(C3CCOCC3)cc2)N1C(=O)CCl [Example 112]	0.198
COC(=O)c1ccc([C@H]2c3[nH]c4ccc(OC)cc4c3C[C@H](C)N2C(=O)CCl)cc1 [Example 113]	0.494

Tested on: not given
Assay: not given
Conditions: male, Balb/c nude, mouse, in vivo, ip, 15 mg/kg

SMILES	AUC Extr [%]
COC(=O)[C@H]1Cc2c([nH]c3ccccc23)[C@H](c2ccc(C(=O)OC(C)(C)C)cc2)N1C(=O)CCl [Example 1]	7.26

Same assay, conditions: mouse, in vivo, ip, 15 mg/kg

SMILES	exposure (Cmax, AUC) compared with K601 (RSL3)
COC(=O)[C@H]1Cc2c([nH]c3ccccc23)[C@H](c2ccc(C(=O)OC(C)(C)C)cc2)N1C(=O)CCl [Example 1]	higher exposure

Same assay, conditions: mouse, ip, 15 mg/kg

SMILES	detection in vivo of hydrolyzed products of K601 (RSL3)
COC(=O)c1ccc([C@H]2c3[nH]c4ccccc4c3C[C@H](C(=O)O)N2C(=O)CCl)cc1 [Example 3]	detected
COC(=O)[C@H]1Cc2c([nH]c3ccccc23)[C@H](c2ccc(C(=O)O)cc2)N1C(=O)CCl [Example 4]	detected
O=C(O)c1ccc([C@H]2c3[nH]c4ccccc4c3C[C@H](C(=O)O)N2C(=O)CCl)cc1 [Example 5]	detected

Tested on: Raji
Assay: Cell viability assay (CellTiter Glo), lymphoma cell line Raji
Type: cell-based
Conditions: Homo sapiens, 96 hours
Description: as §1, §2

SMILES	IC50 [µM]
C[C@H]1Cc2c([nH]c3ccccc23)[C@H](c2ccc(C3CCOCC3)cc2)N1C(=O)CCl [Example 112]	0.046
COC(=O)c1ccc([C@H]2c3[nH]c4ccc(OC)cc4c3C[C@H](C)N2C(=O)CCl)cc1 [Example 113]	0.081
